Experimental data reported in patent US20220193025A1, “USE OF DIANHYDROHEXITOL TO ELIMINATE THE COSMETIC EFFECTS OF ACNE, DANDRUFF AND BAD ODORS” (ROQUETTE FRERES, priority 2019, published 2022).

Experiments:
[1] = system: Propionobacterium acnes strain; test: Example 1: microbial population count over 28 days after contamination (microtiter method, TTC); assay type: cell-based; settings: for Number of colony forming strains after: 24 h / Number of colony forming strains after: 7 days / Number of colony forming strains after: 14 days / Number of colony forming strains after: 21 days / Number of colony forming strains after: 28 days: 22° C.
Experimental: The samples are prepared under sterile conditions and deposited in microplates (2-ml wells) with the concentrations hereunder. Two analysis controls were produced: a positive control corresponding to 0.5% Phenonip®; a negative control consisting of 0.85% physiological saline solution. Samples and controls are contaminated by a Propionobacterium acnes bacterial strain with around 1.43×10^5 to 4.15×10^5 colony forming units per milliliter, denoted cfu/ml. After contamination, the samples are carefully mixed by suction-discharge cycles in order to ensure a uniform distribution of the microorganism. The whole is incubated at 22° C. during 28 days. The microbial population is sampled and counted at 24 hours, 7, 14, 21 and 28 days for the Propionobacterium acnes bacterial strain. The contaminated samples are collected and then deposited in serial dilutions in microtiter plates, in the presence of culture medium, which is a saline solution with 0.85% sodium chloride, and a dehydrogenase activity indicator reagent, which is 2,3,5-triphenyltetrazolium chloride (denoted TTC). The results are presented in the following pages with the variation of the microbial population over the 28 days of study, for the tested microbial strain. The measurements of microbial populations in the samples collected at each time, are carried out according to the following microtiter method, for one sample collection. In the 96 wells with a volume of 250 μL of a microtiter plate, 20 μL of the collected sample are diluted by a factor of 10 by dispersion in 180 μL of Letheen broth (Difco, ref. 268110) containing 1.5% of Tween 80 (Sigma, ref. […]) and TTC (Sigma, ref. […]). The microplate is incubated for 48 hours at 32.5° C., and the growth of the microorganisms is monitored by the color change, from colorless to red/pink. The highest reciprocal dilution indicating a growth makes it possible to determine the log number of each microorganism at each time. The measurements of microbial populations taken at each collection time are expressed as colony forming units/ml.

[2] = system: Corynobacterium xerosis strain; test: Example 3: microbial population count over 28 days after contamination (microtiter method, TTC); assay type: cell-based, Corynebacterium xerosis; settings: for Number of colony forming strains after: 24 h / Number of colony forming strains after: 7 days / Number of colony forming strains after: 14 days / Number of colony forming strains after: 21 days / Number of colony forming strains after: 28 days: 22° C.
Experimental: (§1) The samples are prepared under sterile conditions and deposited in microplates (2-ml wells) with the concentrations hereunder. Two analysis controls were produced: a positive control corresponding to 0.5% Phenonip®; a negative control consisting of 0.85% physiological saline solution. Samples and controls are contaminated by three bacterial strains, Staphylococcus epidermidis, Corynebacterium xerosis and Propionobacterium acnes, with around 1.43×10^5 to 4.15×10^5 colony forming units per milliliter, denoted cfu/ml. After contamination, the samples are carefully mixed by suction-discharge cycles in order to ensure a uniform distribution of the microorganism. The whole is incubated at 22° C. during 28 days. The microbial population is sampled and counted at 24 hours, 7, 14, 21 and 28 days for each bacterial strain. The contaminated samples are collected and then deposited in serial dilutions in microtiter plates, in the presence of culture medium, which is a saline solution with 0.85% sodium chloride, and a dehydrogenase activity indicator reagent, which is 2,3,5-triphenyltetrazolium chloride (denoted TTC). The results are presented in the following pages with the variation of the microbial population over the 28 days of study, for the tested microbial strain. The measurements of microbial populations in the samples collected at each time, are carried out according to the following microtiter method, for one sample collection. In the 96 wells with a volume of 250 μL of a microtiter plate, 20 μL of the collected sample are diluted by a factor of 10 by dispersion in 180 μL of Letheen broth (Difco, ref. 268110) containing 1.5% of Tween 80 (Sigma, ref. […]) and TTC (Sigma, ref. […]). The microplate is incubated for 48 hours at 32.5° C., and the growth of the microorganisms is monitored by the color change, from colorless to red/pink. The highest reciprocal dilution indicating a growth makes it possible to determine the log number of each microorganism at each time. The measurements of microbial populations taken at each collection time are expressed as colony forming units/ml.

[3] = system: Propionobacterium acnes strain; test: as above; assay type: cell-based; settings: for Number of colony forming strains after: 24 h / Number of colony forming strains after: 7 days / Number of colony forming strains after: 14 days / Number of colony forming strains after: 21 days / Number of colony forming strains after: 28 days: 22° C.
Experimental: as §1

[4] = system: Staphylococcus epidermidis strain; test: as above; assay type: cell-based; settings: for Number of colony forming strains after: 24 h / Number of colony forming strains after: 7 days / Number of colony forming strains after: 14 days / Number of colony forming strains after: 21 days / Number of colony forming strains after: 28 days: 22° C.
Experimental: as §1

Aspergillus brasiliensis = settings: U.S. Pat. No. 9,295,626, table 2; cited from earlier work
Candida albicans = settings: U.S. Pat. No. 9,295,626, table 2; cited from earlier work
Staphylococcus aureus = settings: U.S. Pat. No. 9,295,626, table 2; cited from earlier work
[5] = after 24 hours, for the three doses tested

Compound: O[C@@H]1CO[C@H]2[C@@H]1OC[C@@H]2O [isosorbide, 1,4-3,6-dianhydrosorbitol]
- bactericidal effect (conclusion in words) ([1]; Example 1): bactericide
- colony forming strain observed ([1]; after 24 hours, Example 1): no colony forming strain is observed
- Number of colony forming strains after: 24 h ([1]; dose 1%): 0 colony forming units/ml
- Number of colony forming strains after: 7 days ([1]; dose 1%): 0 colony forming units/ml
- Number of colony forming strains after: 14 days ([1]; dose 1%): 0 colony forming units/ml
- Number of colony forming strains after: 21 days ([1]; dose 1%): 0 colony forming units/ml
- Number of colony forming strains after: 28 days ([1]; dose 1%): 0 colony forming units/ml
- Number of colony forming strains after: 24 h ([1]; dose 5%): 0 colony forming units/ml
- Number of colony forming strains after: 7 days ([1]; dose 5%): 0 colony forming units/ml
- Number of colony forming strains after: 14 days ([1]; dose 5%): 0 colony forming units/ml
- Number of colony forming strains after: 21 days ([1]; dose 5%): 0 colony forming units/ml
- Number of colony forming strains after: 28 days ([1]; dose 5%): 0 colony forming units/ml
- Number of colony forming strains after: 24 h ([1]; dose 9%): 0 colony forming units/ml
- Number of colony forming strains after: 7 days ([1]; dose 9%): 0 colony forming units/ml
- Number of colony forming strains after: 14 days ([1]; dose 9%): 0 colony forming units/ml
- Number of colony forming strains after: 21 days ([1]; dose 9%): 0 colony forming units/ml
- Number of colony forming strains after: 28 days ([1]; dose 9%): 0 colony forming units/ml
- bactericidal effect (conclusion in words) [2]: moderate bactericide
- reduction of the number of colony forming strains [2, 5]: at least 3 log 10
- colony forming strain observed ([2]; after 7 days): not any more colony forming strain
- Number of colony forming strains after: 24 h ([2]; dose 1%): 4 × 10^2 colony forming units/ml
- Number of colony forming strains after: 7 days ([2]; dose 1%): 0 colony forming units/ml
- Number of colony forming strains after: 14 days ([2]; dose 1%): 0 colony forming units/ml
- Number of colony forming strains after: 21 days ([2]; dose 1%): 0 colony forming units/ml
- Number of colony forming strains after: 28 days ([2]; dose 1%): 0 colony forming units/ml
- Number of colony forming strains after: 24 h ([2]; dose 5%): 1 × 10^2 colony forming units/ml
- Number of colony forming strains after: 7 days ([2]; dose 5%): 0 colony forming units/ml
- Number of colony forming strains after: 14 days ([2]; dose 5%): 0 colony forming units/ml
- Number of colony forming strains after: 21 days ([2]; dose 5%): 0 colony forming units/ml
- Number of colony forming strains after: 28 days ([2]; dose 5%): 0 colony forming units/ml
- Number of colony forming strains after: 24 h ([2]; dose 9%): 3.7 × 10^2 colony forming units/ml
- Number of colony forming strains after: 7 days ([2]; dose 9%): 0 colony forming units/ml
- Number of colony forming strains after: 14 days ([2]; dose 9%): 0 colony forming units/ml
- Number of colony forming strains after: 21 days ([2]; dose 9%): 0 colony forming units/ml
- Number of colony forming strains after: 28 days ([2]; dose 9%): 0 colony forming units/ml
- bactericidal effect (conclusion in words) ([3]; Example 3): bactericide
- colony forming strain observed ([3]; after 24 hours, Example 3): no colony forming strain is observed
- Number of colony forming strains after: 24 h ([3]; dose 1%): 0 colony forming units/ml
- Number of colony forming strains after: 7 days ([3]; dose 1%): 0 colony forming units/ml
- Number of colony forming strains after: 14 days ([3]; dose 1%): 0 colony forming units/ml
- Number of colony forming strains after: 21 days ([3]; dose 1%): 0 colony forming units/ml
- Number of colony forming strains after: 28 days ([3]; dose 1%): 0 colony forming units/ml
- Number of colony forming strains after: 24 h ([3]; dose 5%): 0 colony forming units/ml
- Number of colony forming strains after: 7 days ([3]; dose 5%): 0 colony forming units/ml
- Number of colony forming strains after: 14 days ([3]; dose 5%): 0 colony forming units/ml
- Number of colony forming strains after: 21 days ([3]; dose 5%): 0 colony forming units/ml
- Number of colony forming strains after: 28 days ([3]; dose 5%): 0 colony forming units/ml
- Number of colony forming strains after: 24 h ([3]; dose 9%): 0 colony forming units/ml
- Number of colony forming strains after: 7 days ([3]; dose 9%): 0 colony forming units/ml
- Number of colony forming strains after: 14 days ([3]; dose 9%): 0 colony forming units/ml
- Number of colony forming strains after: 21 days ([3]; dose 9%): 0 colony forming units/ml
- Number of colony forming strains after: 28 days ([3]; dose 9%): 0 colony forming units/ml
- bactericidal effect (conclusion in words) [4]: weak bactericide
- reduction of the number of colony forming strains [4, 5]: at least 2 log 10
- colony forming strain observed ([4]; after 7 days): not any colony forming strain
- Number of colony forming strains after: 24 h ([4]; dose 1%): 4 × 10^3 colony forming units/ml
- Number of colony forming strains after: 7 days ([4]; dose 1%): 0 colony forming units/ml
- Number of colony forming strains after: 14 days ([4]; dose 1%): 0 colony forming units/ml
- Number of colony forming strains after: 21 days ([4]; dose 1%): 0 colony forming units/ml
- Number of colony forming strains after: 28 days ([4]; dose 1%): 0 colony forming units/ml
- Number of colony forming strains after: 24 h ([4]; dose 5%): 1 × 10^3 colony forming units/ml
- Number of colony forming strains after: 7 days ([4]; dose 5%): 0 colony forming units/ml
- Number of colony forming strains after: 14 days ([4]; dose 5%): 0 colony forming units/ml
- Number of colony forming strains after: 21 days ([4]; dose 5%): 0 colony forming units/ml
- Number of colony forming strains after: 28 days ([4]; dose 5%): 0 colony forming units/ml
- Number of colony forming strains after: 24 h ([4]; dose 9%): 7 × 10^2 colony forming units/ml
- Number of colony forming strains after: 7 days ([4]; dose 9%): 0 colony forming units/ml
- Number of colony forming strains after: 14 days ([4]; dose 9%): 0 colony forming units/ml
- Number of colony forming strains after: 21 days ([4]; dose 9%): 0 colony forming units/ml
- Number of colony forming strains after: 28 days ([4]; dose 9%): 0 colony forming units/ml
- minimum inhibitory concentration (Aspergillus brasiliensis): 10%
- minimum inhibitory concentration (Candida albicans): 10%
- minimum inhibitory concentration (Staphylococcus aureus): 10%
